According to PMC11062922 (Nature Chemical Biology, 2023):

Tests used:
[1] = target: T1, ACVR1B (Homo sapiens, UniProt P36896); assay: Kinobeads competition binding: ACVR1B; details: target ACVR1B
T1 construct: endogenous in cells
T1 sequence (P36896 24-505): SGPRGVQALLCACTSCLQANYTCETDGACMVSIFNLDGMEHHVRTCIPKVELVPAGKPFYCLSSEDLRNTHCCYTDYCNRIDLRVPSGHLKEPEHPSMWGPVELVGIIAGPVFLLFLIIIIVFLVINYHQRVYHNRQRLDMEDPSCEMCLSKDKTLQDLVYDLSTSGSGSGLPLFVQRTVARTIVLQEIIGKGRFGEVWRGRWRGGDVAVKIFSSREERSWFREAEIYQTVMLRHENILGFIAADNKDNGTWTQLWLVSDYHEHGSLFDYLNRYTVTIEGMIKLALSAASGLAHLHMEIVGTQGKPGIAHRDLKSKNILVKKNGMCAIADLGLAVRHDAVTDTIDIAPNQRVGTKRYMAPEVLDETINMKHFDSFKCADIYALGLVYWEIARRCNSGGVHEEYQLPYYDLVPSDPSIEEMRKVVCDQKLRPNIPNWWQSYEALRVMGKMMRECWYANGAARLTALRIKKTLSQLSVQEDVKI

[2] = system: ADK; assay: Kinobeads competition binding: ADK; design: species or system human; details: target ADK;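 also: selectivity score: engagement of this protein divided by summed engagement of all targets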
[3] = target: T2, AURKA (Homo sapiens, UniProt O14965); assay: Kinobeads competition binding: AURKA; details: target AURKA;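 also: selectivity score: engagement of this protein divided by summed engagement of all targets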
T2 construct: endogenous in cells
T2 sequence (O14965 1-403): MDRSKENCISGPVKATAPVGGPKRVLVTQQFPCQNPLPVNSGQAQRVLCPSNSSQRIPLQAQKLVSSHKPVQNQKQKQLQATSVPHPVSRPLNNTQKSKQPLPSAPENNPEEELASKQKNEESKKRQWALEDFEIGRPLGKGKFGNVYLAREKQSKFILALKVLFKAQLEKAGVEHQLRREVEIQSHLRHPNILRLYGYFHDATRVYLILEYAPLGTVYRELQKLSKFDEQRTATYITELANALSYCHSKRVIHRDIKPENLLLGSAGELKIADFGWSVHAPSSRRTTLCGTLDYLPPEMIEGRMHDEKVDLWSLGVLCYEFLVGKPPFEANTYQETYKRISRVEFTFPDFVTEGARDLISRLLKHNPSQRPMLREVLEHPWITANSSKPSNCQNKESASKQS
Source text: Supplement 41589_2023_1459_MOESM4_ESM.xlsx, sheet "CATDS matrix" | column: AURKA

[4] = target: T3, BTK (Homo sapiens, UniProt Q06187); assay: Kinobeads competition binding: BTK; details: target BTK
T3 construct: endogenous in cells
Source text: Supplement 41589_2023_1459_MOESM4_ESM.xlsx, sheet "CATDS matrix" | column: BTK

[5] = target: T4, CAMKK2 (Homo sapiens, UniProt Q96RR4); assay: Kinobeads competition binding: CAMKK2; details: target CAMKK2
T4 construct: endogenous in cells
Source text: Supplement 41589_2023_1459_MOESM4_ESM.xlsx, sheet "CATDS matrix" | column: CAMKK2

[6] = system: CDC42BPB; assay: Kinobeads competition binding: CDC42BPB; design: species or system human; details: target CDC42BPB
[7] = system: CDK16; assay: Kinobeads competition binding: CDK16; design: species or system human; details: target CDK16
[8] = system: CDK17; assay: Kinobeads competition binding: CDK17; design: species or system human; details: target CDK17
[9] = target: T5, CDK4 (Homo sapiens, UniProt P11802); assay: Kinobeads competition binding: CDK4; details: target CDK4
T5 construct: endogenous in cells
Source text: Supplement 41589_2023_1459_MOESM4_ESM.xlsx, sheet "CATDS matrix" | column: CDK4

[10] = system: DNAJA1; assay: Kinobeads competition binding: DNAJA1; design: species or system human; details: target DNAJA1;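 also: share of total target engagement due to this protein at one drug concentration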
[11] = system: ERCC2; assay: Kinobeads competition binding: ERCC2; design: species or system human; details: target ERCC2
[12] = target: T6, ERN2 (Homo sapiens, UniProt Q76MJ5); assay: Kinobeads competition binding: ERN2; details: target ERN2
T6 construct: endogenous in cells

[13] = target: T7, HSP90B1 (Homo sapiens, UniProt P14625); assay: Kinobeads competition binding: HSP90B1; details: target HSP90B1;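 also: share of total target engagement due to this protein at one drug concentration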
T7 construct: endogenous in cells

[14] = system: HSPE1; assay: Kinobeads competition binding: HSPE1; design: species or system human; details: target HSPE1
[15] = system: MAP3K4; assay: Kinobeads competition binding: MAP3K4; design: species or system human; details: target MAP3K4;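 also: target engagement share of this target among all targets at its Kdapp concentration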
[16] = system: MAPK1; assay: Kinobeads competition binding: MAPK1; design: species or system human; details: target MAPK1
[17] = system: MAPK8; assay: Kinobeads competition binding: MAPK8; design: species or system human; details: target MAPK8
[18] = system: MARK2; assay: Kinobeads competition binding: MARK2; design: species or system human; details: target MARK2
[19] = system: MDN1; assay: Kinobeads competition binding: MDN1; design: species or system human; details: target MDN1
[20] = system: NEK1; assay: Kinobeads competition binding: NEK1; design: species or system human; details: target NEK1
[21] = target: T8, PHKG2 (Homo sapiens, UniProt P15735); assay: Kinobeads competition binding: PHKG2; details: target PHKG2
T8 construct: a mixture of lysates from five cancer cell lines; endogenous in cells
T8 sequence (P15735 1-406): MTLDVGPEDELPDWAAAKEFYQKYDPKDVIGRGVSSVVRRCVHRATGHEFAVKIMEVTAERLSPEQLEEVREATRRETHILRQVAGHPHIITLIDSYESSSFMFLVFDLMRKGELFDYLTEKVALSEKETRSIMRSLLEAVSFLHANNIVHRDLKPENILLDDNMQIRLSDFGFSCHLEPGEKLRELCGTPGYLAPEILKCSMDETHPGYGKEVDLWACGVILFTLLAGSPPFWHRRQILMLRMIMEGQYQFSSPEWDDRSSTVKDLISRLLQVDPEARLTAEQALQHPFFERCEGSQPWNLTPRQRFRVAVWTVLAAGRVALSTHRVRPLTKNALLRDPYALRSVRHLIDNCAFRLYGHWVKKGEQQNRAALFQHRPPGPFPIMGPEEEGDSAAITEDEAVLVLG

[22] = system: PIK3C2B; assay: Kinobeads competition binding: PIK3C2B; design: species or system human; details: target PIK3C2B
[23] = system: PIK3CB; assay: Kinobeads competition binding: PIK3CB; design: species or system human; details: target PIK3CB

T3 sequence (Q06187 whole entry): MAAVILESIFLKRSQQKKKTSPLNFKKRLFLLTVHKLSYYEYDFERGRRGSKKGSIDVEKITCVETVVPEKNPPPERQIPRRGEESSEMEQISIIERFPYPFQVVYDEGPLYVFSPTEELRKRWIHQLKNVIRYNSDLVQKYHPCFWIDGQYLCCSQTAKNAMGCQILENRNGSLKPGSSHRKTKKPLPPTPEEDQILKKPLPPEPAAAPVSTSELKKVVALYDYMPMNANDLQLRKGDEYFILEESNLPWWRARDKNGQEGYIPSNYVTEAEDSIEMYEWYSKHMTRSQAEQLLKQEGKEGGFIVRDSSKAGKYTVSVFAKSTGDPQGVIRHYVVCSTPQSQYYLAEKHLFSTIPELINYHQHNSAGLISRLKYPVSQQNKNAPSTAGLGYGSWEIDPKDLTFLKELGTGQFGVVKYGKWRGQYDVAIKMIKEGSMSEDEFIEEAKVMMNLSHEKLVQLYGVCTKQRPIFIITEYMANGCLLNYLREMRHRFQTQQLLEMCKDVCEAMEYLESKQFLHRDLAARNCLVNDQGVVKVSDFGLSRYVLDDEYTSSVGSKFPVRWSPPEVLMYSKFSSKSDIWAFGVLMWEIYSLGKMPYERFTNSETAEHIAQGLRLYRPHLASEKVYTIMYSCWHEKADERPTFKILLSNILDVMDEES
T5 sequence (P11802 whole entry): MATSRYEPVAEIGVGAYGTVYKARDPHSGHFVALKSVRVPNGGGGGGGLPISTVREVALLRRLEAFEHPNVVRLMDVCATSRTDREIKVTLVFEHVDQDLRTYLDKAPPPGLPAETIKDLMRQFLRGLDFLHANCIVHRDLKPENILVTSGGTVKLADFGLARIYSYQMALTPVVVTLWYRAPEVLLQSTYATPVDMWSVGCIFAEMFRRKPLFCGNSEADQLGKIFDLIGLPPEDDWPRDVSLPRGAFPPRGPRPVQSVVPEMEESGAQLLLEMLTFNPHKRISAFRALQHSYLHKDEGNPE
T4 sequence (Q96RR4 whole entry): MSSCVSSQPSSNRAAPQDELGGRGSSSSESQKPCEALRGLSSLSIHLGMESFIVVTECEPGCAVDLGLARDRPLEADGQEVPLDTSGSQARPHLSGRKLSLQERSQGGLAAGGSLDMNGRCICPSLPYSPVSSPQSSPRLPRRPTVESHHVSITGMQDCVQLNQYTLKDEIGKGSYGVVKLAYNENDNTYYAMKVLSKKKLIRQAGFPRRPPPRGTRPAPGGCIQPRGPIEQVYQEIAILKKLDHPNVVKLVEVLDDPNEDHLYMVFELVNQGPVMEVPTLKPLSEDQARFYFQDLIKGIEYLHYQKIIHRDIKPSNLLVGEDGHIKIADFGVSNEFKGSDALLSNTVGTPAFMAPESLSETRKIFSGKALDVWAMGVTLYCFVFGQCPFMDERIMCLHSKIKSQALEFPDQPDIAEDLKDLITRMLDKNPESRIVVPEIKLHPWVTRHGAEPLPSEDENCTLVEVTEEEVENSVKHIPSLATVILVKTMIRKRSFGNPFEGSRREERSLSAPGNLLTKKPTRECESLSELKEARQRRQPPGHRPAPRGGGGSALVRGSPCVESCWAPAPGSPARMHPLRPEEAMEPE
T6 sequence (Q76MJ5 35-926): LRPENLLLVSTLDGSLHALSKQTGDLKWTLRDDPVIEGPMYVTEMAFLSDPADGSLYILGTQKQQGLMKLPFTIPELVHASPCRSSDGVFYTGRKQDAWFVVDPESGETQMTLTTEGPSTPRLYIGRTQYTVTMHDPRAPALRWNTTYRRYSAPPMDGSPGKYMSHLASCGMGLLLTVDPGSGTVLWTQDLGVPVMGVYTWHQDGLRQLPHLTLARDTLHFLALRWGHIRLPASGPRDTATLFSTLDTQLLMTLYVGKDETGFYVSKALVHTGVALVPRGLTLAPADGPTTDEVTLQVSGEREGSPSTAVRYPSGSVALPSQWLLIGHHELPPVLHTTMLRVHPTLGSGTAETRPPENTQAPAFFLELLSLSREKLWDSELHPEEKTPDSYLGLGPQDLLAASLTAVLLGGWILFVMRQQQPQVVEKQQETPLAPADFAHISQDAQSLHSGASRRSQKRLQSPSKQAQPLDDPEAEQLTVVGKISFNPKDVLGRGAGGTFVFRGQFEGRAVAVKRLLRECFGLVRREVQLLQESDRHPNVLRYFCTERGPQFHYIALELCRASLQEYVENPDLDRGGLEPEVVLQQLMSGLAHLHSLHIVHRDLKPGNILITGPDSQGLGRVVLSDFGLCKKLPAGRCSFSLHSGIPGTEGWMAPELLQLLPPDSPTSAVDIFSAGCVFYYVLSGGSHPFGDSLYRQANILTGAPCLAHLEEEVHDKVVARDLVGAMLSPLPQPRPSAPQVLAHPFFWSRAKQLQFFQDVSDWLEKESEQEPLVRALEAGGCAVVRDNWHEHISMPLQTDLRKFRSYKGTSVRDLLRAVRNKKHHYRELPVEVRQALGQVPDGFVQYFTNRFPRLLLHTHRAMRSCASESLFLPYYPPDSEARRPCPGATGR
T7 sequence (P14625 22-803): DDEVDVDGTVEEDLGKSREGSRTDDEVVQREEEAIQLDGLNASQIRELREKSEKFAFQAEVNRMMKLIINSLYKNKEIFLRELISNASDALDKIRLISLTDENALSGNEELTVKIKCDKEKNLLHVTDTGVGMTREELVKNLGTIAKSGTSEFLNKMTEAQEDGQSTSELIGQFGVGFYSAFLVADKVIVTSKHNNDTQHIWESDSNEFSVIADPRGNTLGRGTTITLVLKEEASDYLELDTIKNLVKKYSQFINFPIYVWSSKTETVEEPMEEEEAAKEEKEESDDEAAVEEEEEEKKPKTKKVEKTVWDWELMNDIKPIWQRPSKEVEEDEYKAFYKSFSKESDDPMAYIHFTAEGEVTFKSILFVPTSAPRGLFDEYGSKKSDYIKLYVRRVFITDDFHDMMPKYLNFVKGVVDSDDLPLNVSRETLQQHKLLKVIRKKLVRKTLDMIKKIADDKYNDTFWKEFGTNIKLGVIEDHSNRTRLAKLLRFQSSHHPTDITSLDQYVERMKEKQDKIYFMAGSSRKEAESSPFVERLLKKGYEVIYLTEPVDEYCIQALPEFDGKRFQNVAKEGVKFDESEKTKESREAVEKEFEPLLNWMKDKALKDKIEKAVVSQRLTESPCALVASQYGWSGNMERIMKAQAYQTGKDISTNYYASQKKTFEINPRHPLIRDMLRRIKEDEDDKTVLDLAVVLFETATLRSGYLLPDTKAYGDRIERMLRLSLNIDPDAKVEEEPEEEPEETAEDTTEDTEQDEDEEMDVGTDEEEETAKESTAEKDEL

| Structure (SMILES) | CATDS [1] | CATDS [2] | CATDS [3] | CATDS [4] | CATDS [5] | CATDS [6] | CATDS [7] | CATDS [8] | CATDS [9] | CATDS [10] | CATDS [11] | CATDS [12] | CATDS [13] | CATDS [14] | CATDS [15] | CATDS [16] | CATDS [17] | CATDS [18] | CATDS [19] | CATDS [20] | other results |
| --- | --- | --- | --- | --- | --- | --- | --- | --- | --- | --- | --- | --- | --- | --- | --- | --- | --- | --- | --- | --- | --- |
| Nc1ncnc2[nH]c(-c3ccccc3)nc12 [AH5015_KCGS] | 0 | 0 | 0 | 0 | 0 | 0 | 0 | 0 | 0 | 0 | 0.1122 | 0 | 0 | 0 | 0 | 0 | 0 | 0 | 0 | 0 | CATDS [21]: 0; CATDS [22]: 0; CATDS [23]: 0 |
| CCN1CCN(Cc2ccc(Nc3ncc(F)c(-c4cc(F)c5nc(C)n(C(C)C)c5c4)n3)nc2)CC1 [Abemaciclib] | 0 | 0 | 0 | 0 | 0 | 0 | 0.02651 | 0.02553 | 0 | 0 | 0 | 0 | 0 | 0 | 0 | 0 | 0 | 0 | 0 | 0 | CATDS [21]: 0; CATDS [22]: 0; CATDS [23]: 0 |
| CN(C)C/C=C/C(=O)Nc1cc2c(Nc3ccc(F)c(Cl)c3)ncnc2cc1O[C@H]1CCOC1 [Afatinib] |  | 0 | 0 | 0 | 0 |  |  |  | 0 | 0 | 0 |  | 0 | 0 |  |  |  |  | 0 |  |  |
| CCc1cc2c(cc1N1CCC(N3CCOCC3)CC1)C(C)(C)c1[nH]c3cc(C#N)ccc3c1C2=O [Alectinib] | 0 | 0 | 0 | 0 | 0 | 0 | 0 | 0 | 0 | 0 | 0 | 0 | 0 | 0 | 0 | 0 | 0 | 0 | 0 | 0 | CATDS [21]: 0; CATDS [22]: 0; CATDS [23]: 0 |
| N#CC1(c2ccc(NC(=O)c3cccnc3NCc3ccncc3)cc2)CCCC1 [Apatinib] | 0 | 0 | 0 | 0 | 0 | 0 | 0 | 0 | 0 | 0 | 0 | 0 | 0 | 0 | 0 | 0 | 0 | 0 | 0 | 0 | CATDS [21]: 0; CATDS [22]: 0; CATDS [23]: 0 |
